These results are taken from patent US12629364B2, “Methods of treating cancers overexpressing CARM1 with EZH2 inhibitors and platinum-based antineoplastic drugs” (The Wistar Institute of Anatomy and Biology, priority 2016, dated 2026).

“Also recorded” adds a separate entry of the source.

One data set addresses T1, EZH2 (Homo sapiens, UniProt Q15910).
T1 construct: endogenous in cells; host or cells: A1847 human epithelial ovarian cancer cells
Kind of data set: H3K27Me3 / EZH2 immunoblot in A1847 cells. The settings on record: 72 hours, read-out: inhibition of the enzymatic activity of EZH2 as indicated by decrease in H3K27Me3 levels. The data set is classed as cell-based. As to the method: FIG. 32 illustrates that the EZH2 inhibitor GSK 126 decreases H3K27Me3 levels in a dose-dependent manner. A1847 cells were treated with the indicated concentrations of GSK126 for 72 hours and examined for expression of the indicated proteins by immunoblot. Expression of histone H3 and β-actin was used as a loading control.
Small molecules used in the epigenetic screen were obtained from Structural Genomics Consortium or The Wistar Institute Molecular Screening Facility. GSK126 was obtained from Active Biochem or Xcess Biosciences. Antibodies were obtained from: mouse anti-CARM1 (Cell Signaling, Cat. No: 12495, 1:1000 for immunoblotting), goat anti-BAF155 (Santa Cruz, Cat. No: SC9746, 1:1000 for immunoblotting), rabbit anti-methylated R1064 BAF155 (Millipore, Cat. No: ABE1339, 1:1000 for immunoblotting), rabbit anti-EZH2 (Cell Signaling, Cat. No: 5246, 1:1000 for immunoblotting), rabbit anti-cleaved PARP p85 (Promega, Cat. No: G7341, 1:1000 for immunoblotting), mouse anti-Ki67 (Cell Signaling, Cat. No: 9449, 1:500 for IHC), rabbit anti-cleaved caspase 3 (Cell Signaling, Cat. No: 9661, 1:1000 for immunoblotting and 1:50 for IHC), rabbit anti-H3K27Me3 (Cell Signaling, Cat. No: 9733, 1:1000 for immunoblotting and 1:100 for IHC), mouse anti-β-actin (Sigma, Cat. No: A1978, 1:20,000 for immunoblotting), rabbit anti-RNA pol II (Santa Cruz, Cat. No: sc-899). […]
(In general: In western blotting, separated proteins are transferred to a membrane and probed.)

Data set [1] concerns CARM1-expressing cell lines (A1847, OVCAR10, and PEO4). Kind of data set: Colony formation assay / GSK126 response curves, CARM1-expressing ovarian cancer cell lines. The format is cell-based, Human. The source says: FIG. 5 illustrates the results of a colony formation assay with a panel of normal and ovarian cancer cell lines in the presence of GSK126.
FIG. 7 illustrates GSK 126 response curves in a panel of normal and ovarian cancer cell lines. Error bars indicate standard error (S.E.) for n=3. *, p≤0.05.
FIG. 8 illustrates IC50 results for the panel of normal and ovarian cancer cell lines.
(§1) FIG. 33 illustrates relative growth of the indicated HOSE, FTE, and EOC cancer cell lines with high or low CARM1 expression treated with 10 μM GSK126 or vehicle in a colony formation assay as determined by NIH Image J quantification.
(§2) 500 to 5,000 cell were plated into a 24 well tissue culture plate and treated with the indicated compounds. Medium was changed every three days with appropriate drug doses for 12 days or until control wells became confluent. Colonies were washed twice with PBS and fixed with 10% methanol and 10% acetic acid in distilled water. Fixed colonies were stained with 0.005% crystal violet. Integrated density was measured using NIH ImageJ software.

In data set [2] the test system is tumors formed by CARM1 knockout A1847 cells. Kind of data set: Subcutaneous xenograft, CARM1 knockout A1847 cells. The data set is classed as in vivo, NSG mice. The settings on record: 50 mg/kg daily. Here is the method: (§3) FIGS. 73 to 75 illustrate that EZH2 inhibition suppressed the growth of CARM1-expressing ovarian tumors in vivo. FIG. 73 illustrates images of tumors dissected from control or GSK126 treated mice. CARM1-high A1847 cells were injected subcutaneously into immunocompromised NSG mice (n=5/group). Tumors were allowed to establish for one week before the mice were randomized into two different treatment groups. Mice were treated with vehicle control or GSK126 (50 mg/kg daily) for an additional three weeks. At the end of treatment, the mice were euthanized. Bar=1 cm. FIG. 74 illustrates a difference in tumor size measured as a surrogate for tumor burden from the control and GSK 126 treated mice at the indicated time point. FIG. 75 illustrates a difference in tumor weight measured as a surrogate for tumor burden from control and GSK 126-treated mice. The mice were injected with CARM1 knockout A1847 cells.
(§4) The protocols were approved by the Institutional Animal Care and Use Committee (IACUC). 5×10^6 control A1847 or A1847 CARM1 knockout cells were unilaterally injected subcutaneously into 6-8-week old female immunocompromised NSG mice (n=5 per group). […] Tumor size was measured every 3 days for 3 weeks. At end of the experiments, tumors were surgically dissected and tumor burden was calculated based on tumor weight.

Data set [3] relates to CARM1-expressing A1847 tumors. Kind of data set: Subcutaneous xenograft, CARM1-expressing A1847 cells. The data set is classed as in vivo, NSG mice. The settings on record: 50 mg/kg daily i.p., three weeks. As to the method: as §3, §4
For data set [4] the following is noted: clinical trials for hematopoietic malignancies; cited from earlier work.
A further data set has as its system HOSE or FTE cells. Kind of data set: Colony formation assay, normal HOSE and FTE cells. The format is cell-based, Human. The settings on record: 10 μM. As to the method: as §1, §2
Data set [5] concerns CARM1-expressing A1847 tumors. Kind of data set: Intrabursal orthotopic xenograft, CARM1-expressing A1847 cells. Conditions: 50 mg/kg daily i.p., three weeks. The data set is classed as in vivo, NSG mice. Here is the method:
FIG. 76 illustrates images of reproductive tracks with tumors from control or GSK126 treated mice. CARM1-high A1847 ovarian cancer cells were unilaterally injected into the ovarian bursa sac of immunocompromised mice (n=5/group). Tumors were allowed to establish for one week before the mice were randomized into two different treatment groups. Mice were treated with vehicle control or GSK126 (50 mg/kg daily) for an additional three weeks. At the end of treatment, the mice were euthanized.
FIG. 77 illustrates tumor weights for the tumors described in FIG. 76. Tumor weight was measured as a surrogate for tumor burden from the control and GSK126 treated mice.
FIG. 78 illustrates the percent survival for the animals treated in FIG. 76. After stopping treatment, the mice from the indicated groups were followed for survival. […] P-value was calculated by log-rank test.
The protocols were approved by the Institutional Animal Care and Use Committee (IACUC). For in vivo experiments, the sample size of 5 mice per group was determined based on the data shown from in vitro experiments. […] At the end of the experiments, tumors were surgically dissected and tumor burden was calculated based on tumor weight. For survival experiments, after stopping the treatment, the mice were followed for mortality or when the tumor burden reached 10% of body weight as determined by The Wistar Institute IACUC guideline.

T1 sequence (Q15910 whole entry): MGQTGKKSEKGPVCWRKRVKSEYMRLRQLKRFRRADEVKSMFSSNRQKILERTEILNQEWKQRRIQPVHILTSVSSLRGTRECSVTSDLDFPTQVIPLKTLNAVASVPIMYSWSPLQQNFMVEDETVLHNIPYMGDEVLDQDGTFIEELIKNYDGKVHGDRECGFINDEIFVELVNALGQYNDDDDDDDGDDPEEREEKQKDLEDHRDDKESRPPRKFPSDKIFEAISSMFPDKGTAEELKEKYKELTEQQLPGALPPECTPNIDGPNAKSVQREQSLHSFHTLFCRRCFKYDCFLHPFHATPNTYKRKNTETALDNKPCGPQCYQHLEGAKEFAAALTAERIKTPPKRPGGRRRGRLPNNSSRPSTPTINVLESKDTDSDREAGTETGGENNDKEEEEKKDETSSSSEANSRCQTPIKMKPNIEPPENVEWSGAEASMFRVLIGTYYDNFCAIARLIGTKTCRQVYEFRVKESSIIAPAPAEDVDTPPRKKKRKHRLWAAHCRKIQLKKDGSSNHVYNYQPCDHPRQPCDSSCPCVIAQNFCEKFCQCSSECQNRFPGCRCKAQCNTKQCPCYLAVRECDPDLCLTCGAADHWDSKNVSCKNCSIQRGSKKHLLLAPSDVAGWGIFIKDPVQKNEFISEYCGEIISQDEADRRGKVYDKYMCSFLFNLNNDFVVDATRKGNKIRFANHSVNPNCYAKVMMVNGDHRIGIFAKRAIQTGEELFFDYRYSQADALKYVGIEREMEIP
T1 sequence (Q15022 whole entry partner): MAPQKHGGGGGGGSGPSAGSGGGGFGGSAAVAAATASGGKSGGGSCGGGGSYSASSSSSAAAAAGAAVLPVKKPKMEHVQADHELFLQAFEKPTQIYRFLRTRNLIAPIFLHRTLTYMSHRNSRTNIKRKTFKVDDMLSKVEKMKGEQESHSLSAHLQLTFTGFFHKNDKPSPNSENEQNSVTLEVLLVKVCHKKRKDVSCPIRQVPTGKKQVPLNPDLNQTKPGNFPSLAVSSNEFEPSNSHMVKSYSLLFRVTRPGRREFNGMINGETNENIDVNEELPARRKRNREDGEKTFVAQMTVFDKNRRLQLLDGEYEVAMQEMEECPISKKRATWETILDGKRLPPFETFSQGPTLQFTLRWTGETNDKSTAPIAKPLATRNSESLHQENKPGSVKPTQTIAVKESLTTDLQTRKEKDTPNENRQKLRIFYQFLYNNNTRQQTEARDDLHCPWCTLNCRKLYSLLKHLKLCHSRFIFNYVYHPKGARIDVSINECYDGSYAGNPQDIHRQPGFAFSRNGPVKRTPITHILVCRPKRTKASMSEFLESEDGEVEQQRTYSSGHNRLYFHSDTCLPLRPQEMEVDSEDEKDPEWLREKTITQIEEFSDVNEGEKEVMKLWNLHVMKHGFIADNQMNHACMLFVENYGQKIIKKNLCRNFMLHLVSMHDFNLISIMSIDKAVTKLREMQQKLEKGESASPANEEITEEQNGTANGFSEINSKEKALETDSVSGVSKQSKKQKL
T1 sequence (O75530 whole entry partner): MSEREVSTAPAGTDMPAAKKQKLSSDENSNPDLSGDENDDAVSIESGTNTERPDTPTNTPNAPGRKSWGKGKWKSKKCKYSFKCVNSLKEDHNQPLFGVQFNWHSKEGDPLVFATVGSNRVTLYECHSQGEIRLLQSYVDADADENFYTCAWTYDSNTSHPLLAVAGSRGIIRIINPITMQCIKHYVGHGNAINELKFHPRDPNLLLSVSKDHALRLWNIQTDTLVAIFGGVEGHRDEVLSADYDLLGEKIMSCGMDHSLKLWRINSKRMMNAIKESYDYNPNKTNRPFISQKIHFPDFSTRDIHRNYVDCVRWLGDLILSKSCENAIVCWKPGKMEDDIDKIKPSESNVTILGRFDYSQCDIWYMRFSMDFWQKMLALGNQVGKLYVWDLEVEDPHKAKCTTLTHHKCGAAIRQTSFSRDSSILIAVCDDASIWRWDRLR

In the case of `CC[C@H](C)n1cc(C)c2c(C(=O)NCc3c(C)cc(C)[nH]c3=O)cc(-c3ccc(N4CCNCC4)nc3)cc21` [GSK126, (S)-1-(sec-butyl)-N-((4,6-dimethyl-2-oxo-1,2-dihydropyridin-3-yl)methyl)-3-methyl-6-(6-(piperazin-1-yl)pyridin-3-yl)-1H-indole-4-carboxamide], the inhibition at 10 µM on EZH2 was over 95%. Besides, in data set [1] (10 μM, panel of EOC cell lines), the “relation of CARM1 expression level and cellular response” value is “correlation between CARM1 expression levels and cellular response”. Further, the “IC50 values from response curves” value in data set [1] (CARM1-expressing cell lines (A1847, OVCAR10, PEO4) versus panel of normal and ovarian cancer cell lines, values only in FIG. 8) is reported as “Significantly reduced IC50 values”. Moreover, the tumor growth result in data set [2] was “failed to inhibit the growth”; in data set [3], “significantly inhibited the growth of CARM1-expressing tumors”. In addition, the “tolerability in clinical trials” value in data set [4] is listed as “used safely in clinical trials; also recorded: well-tolerated with limited toxicity”. In the data set with HOSE or FTE cells, the “growth of normal cells” value is “did not affect the growth of either HOSE or FTE cells”. Besides, the “tumor growth (tumor weight)” value in data set [5] is “significantly inhibited”.

Usually inhibition stands for the share of the control response that was lost under treatment.
